Among the data in patent US20250282768A1 (Janssen Pharmaceutica NV, priority 2022, published 2025) are IC50 values, retold here.

Molecules are shown by their SMILES.

The test relates to p-IKKa levels in L363 (NIK translocated multiple myeloma) cells. Nature of the test: Assay 2: Effect of compounds on p-IKKa levels in L363 (NIK translocated multiple myeloma) cells. The format is cell-based. The note with it: Homo sapiens, L-363, 6 h, read-out: Assay 2 IC50 (nM), p-IKKa (Ser 176/180) in BAFF stimulated L363 cells with MG132, 6 h; average if tested more than once. An outline of the steps:
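Read-out is p-IKKa Ser176/180 by AlphaLISA SureFire in lysates. Cells were BAFF-primed (250 ng/ml) overnight or left unstimulated, then exposed 6 h at 37 °C to compound with MG132 (10 μM), 0.3% DMSO. IC50 from sigmoidal curve fit, normalized between stimulated and unstimulated controls.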

In the case of `COCc1cc(-c2ccnc(Nc3cnn(C)c3)n2)nc(-n2cc([C@]3(O)CCN(C)C3=O)nn2)c1` [Example 138, (R)-3-Hydroxy-3-(1-(4-(methoxymethyl)-6-(2-((1-methyl-1H-pyrazol-4-yl)amino)pyrimidin-4-yl)pyridin-2-yl)-1H-1,2,3-triazol-4-yl)-1-methylpyrrolidin-2-one], the IC50 lay within 50 to 500 nM.
With `Cc1nn(CC(F)F)cc1Nc1nccc(-c2cccc(-n3cc([C@]4(O)CCN(C)C4=O)nn3)n2)n1` [Example 144, (R)-3-(1-(6-(2-((1-(2,2-Difluoroethyl)-3-methyl-1H-pyrazol-4-yl)amino)pyrimidin-4-yl)pyridin-2-yl)-1H-1,2,3-triazol-4-yl)-3-hydroxy-1-methylpyrrolidin-2-one], the IC50 was under 50 nM.
Regarding `COc1cc(-c2cc([C@]3(O)CCN(C)C3=O)on2)nc(-c2ccnc(Nc3cnn(C)c3)n2)c1` [Example 145, (R)-3-Hydroxy-3-(3-(4-methoxy-6-(2-((1-methyl-1H-pyrazol-4-yl)amino)pyrimidin-4-yl)pyridin-2-yl)isoxazol-5-yl)-1-methylpyrrolidin-2-one], the IC50 is under 50 nM.
Consider `COc1cc(-c2cc([C@]3(O)CCN(C)C3=O)on2)nc(-c2ccnc(Nc3ccn(C)n3)n2)c1` [Example 146, (R)-3-Hydroxy-3-(3-(4-methoxy-6-(2-((1-methyl-1H-pyrazol-3-yl)amino)pyrimidin-4-yl)pyridin-2-yl)isoxazol-5-yl)-1-methylpyrrolidin-2-one], for which the IC50 was under 50 nM.
`CC(Nc1nccc(-c2cccc(-c3cc([C@]4(O)CCN(C)C4=O)on3)n2)n1)c1cc[nH]n1` (stereo partly drawn) [Example 147, (3R)-3-(3-(6-(2-((1-(1H-Pyrazol-3-yl)ethyl)amino)pyrimidin-4-yl)pyridin-2-yl)isoxazol-5-yl)-3-hydroxy-1-methylpyrrolidin-2-one]: the IC50 fell in the range of 50 to 500 nM.
For `C[C@@H](O)[C@@H](Nc1nccc(-c2cccc(-c3cc([C@]4(O)CCN(C)C4=O)on3)n2)n1)c1ccccc1` [Example 152, (R)-3-Hydroxy-3-(3-(6-(2-(((1 S,2R)-2-hydroxy-1-phenylpropyl)amino)pyrimidin-4-yl)pyridin-2-yl)isoxazol-5-yl)-1-methylpyrrolidin-2-one] the value was 50 to 500 nM.
On to `C[C@H](Nc1nccc(-c2cccc(-c3cc([C@]4(O)CCN(C)C4=O)on3)n2)n1)c1ccc2nccn2c1` [Example 153, (R)-3-Hydroxy-3-(3-(6-(2-(((S)-1-(imidazo[1,2-a]pyridin-6-yl)ethyl)amino)pyrimidin-4-yl)pyridin-2-yl)isoxazol-5-yl)-1-methylpyrrolidin-2-one], for which the IC50 is over 500 nM.
As to `C[C@H](O)[C@@H](Nc1nccc(-c2cccc(-c3cc([C@]4(O)CCN(C)C4=O)on3)n2)n1)c1ccccc1` [Example 158, (R)-3-Hydroxy-3-(3-(6-(2-(((1 S,2S)-2-hydroxy-1-phenylpropyl)amino)pyrimidin-4-yl)pyridin-2-yl)isoxazol-5-yl)-1-methylpyrrolidin-2-one], the IC50 was over 500 nM.
In the case of `C[C@@H](O)[C@H](Nc1nccc(-c2cccc(-c3cc([C@]4(O)CCN(C)C4=O)on3)n2)n1)c1ccccc1` [Example 159, (R)-3-Hydroxy-3-(3-(6-(2-(((1R,2R)-2-hydroxy-1-phenylpropyl)amino)pyrimidin-4-yl)pyridin-2-yl)isoxazol-5-yl)-1-methylpyrrolidin-2-one], the IC50 was in the range of 50 to 500 nM.
As to `C[C@@H](Nc1nccc(-c2cccc(-c3cc([C@]4(O)CCN(C)C4=O)on3)n2)n1)C(=O)N1CCC1` [Example 167, (R)-3-(3-(6-(2-(((R)-1-(Azetidin-1-yl)-1-oxopropan-2-yl)amino)pyrimidin-4-yl)pyridin-2-yl)isoxazol-5-yl)-3-hydroxy-1-methylpyrrolidin-2-one], the IC50 was over 500 nM.
Take `C[C@H](Nc1nccc(-c2cccc(-c3cc([C@]4(O)CCN(C)C4=O)on3)n2)n1)C(=O)N1CCC1` [Example 168, (R)-3-(3-(6-(2-(((S)-1-(Azetidin-1-yl)-1-oxopropan-2-yl)amino)pyrimidin-4-yl)pyridin-2-yl)isoxazol-5-yl)-3-hydroxy-1-methylpyrrolidin-2-one]: the IC50 fell in the range of 50 to 500 nM.
As for `C[C@@H](Nc1nccc(-c2cccc(-c3cc([C@]4(O)CCN(C)C4=O)on3)n2)n1)C(=O)N1CC(F)(F)C1` [Example 169, (R)-3-(3-(6-(2-(((R)-1-(3,3-Difluoroazetidin-1-yl)-1-oxopropan-2-yl)amino)pyrimidin-4-yl)pyridin-2-yl)isoxazol-5-yl)-3-hydroxy-1-methylpyrrolidin-2-one], the IC50 was over 500 nM.
With `C[C@H](Nc1nccc(-c2cccc(-c3cc([C@]4(O)CCN(C)C4=O)on3)n2)n1)C(=O)N1CC(F)(F)C1` [Example 170, (R)-3-(3-(6-(2-(((S)-1-(3,3-Difluoroazetidin-1-yl)-1-oxopropan-2-yl)amino)pyrimidin-4-yl)pyridin-2-yl)isoxazol-5-yl)-3-hydroxy-1-methylpyrrolidin-2-one], the IC50 was 50 to 500 nM.
`C[C@@H](Nc1nccc(-c2cccc(-c3cc([C@]4(O)CCN(C)C4=O)on3)n2)n1)C(=O)N1CC(C(F)(F)F)C1` [Example 171, (R)-3-Hydroxy-1-methyl-3-(3-(6-(2-(((R)-1-oxo-1-(3-(trifluoromethyl)azetidin-1-yl)propan-2-yl)amino)pyrimidin-4-yl)pyridin-2-yl)isoxazol-5-yl)pyrrolidin-2-one]: the IC50 was in the range of 50 to 500 nM.
Turning to `C[C@H](Nc1nccc(-c2cccc(-c3cc([C@]4(O)CCN(C)C4=O)on3)n2)n1)C(=O)N1CC(C(F)(F)F)C1` [Example 172, (R)-3-Hydroxy-1-methyl-3-(3-(6-(2-(((S)-1-oxo-1-(3-(trifluoromethyl)azetidin-1-yl)propan-2-yl)amino)pyrimidin-4-yl)pyridin-2-yl)isoxazol-5-yl)pyrrolidin-2-one], the IC50 is 50 to 500 nM.
For `C[C@@H](Nc1nccc(-c2cccc(-c3cc([C@]4(O)CCN(C)C4=O)on3)n2)n1)C(=O)N1CCC(F)(F)C1` [Example 173, (R)-3-(3-(6-(2-(((R)-1-(3,3-Difluoropyrrolidin-1-yl)-1-oxopropan-2-yl)amino)pyrimidin-4-yl)pyridin-2-yl)isoxazol-5-yl)-3-hydroxy-1-methylpyrrolidin-2-one] the value was over 500 nM; for `C[C@H](Nc1nccc(-c2cccc(-c3cc([C@]4(O)CCN(C)C4=O)on3)n2)n1)C(=O)N1CCC(F)(F)C1` [Example 174, (R)-3-(3-(6-(2-(((S)-1-(3,3-Difluoropyrrolidin-1-yl)-1-oxopropan-2-yl)amino)pyrimidin-4-yl)pyridin-2-yl)isoxazol-5-yl)-3-hydroxy-1-methylpyrrolidin-2-one], 50 to 500 nM; for `C[C@@H](Nc1nccc(-c2cccc(-c3cc([C@]4(O)CCN(C)C4=O)on3)n2)n1)C(=O)N(C)C` [Example 175, (R)-2-((4-(6-(5-((R)-3-Hydroxy-1-methyl-2-oxopyrrolidin-3-yl)isoxazol-3-yl)pyridin-2-yl)pyrimidin-2-yl)amino)-N,N-dimethylpropanamide], over 500 nM.
Take `C[C@H](Nc1nccc(-c2cccc(-c3cc([C@]4(O)CCN(C)C4=O)on3)n2)n1)C(=O)N(C)C` [Example 176, (S)-2-((4-(6-(5-((R)-3-Hydroxy-1-methyl-2-oxopyrrolidin-3-yl)isoxazol-3-yl)pyridin-2-yl)pyrimidin-2-yl)amino)-N,N-dimethylpropanamide]: the IC50 was 50 to 500 nM.
